Here are results for 15 compounds from patent US7632952B2, “Benzothiazoles and the use thereof as medicaments” (Aventis Pharma S.A., priority 2004, dated 2009).

Assay [1] deals with CDK2/cyclin E (Homo sapiens, UniProt P24941). Description: CDK2/cyclin E Flashplate test in 96-well format. It counts as biochemical. The note with it: read-out: CDK2 IC50. The method, then: 1. Protocol CDK2/cyclin E:
Purification of the CDK2/cyclin E-(His)6 Complex by IMAC (Immobilized Metal Affinity Chromatography):
Two recombinant baculoviruses bearing the human sequences coding, respectively, for CDK2 and cyclin E (the latter comprising a C-terminal hexahistidine tag) are used to coinfect insect Sf21 cells. Two to three days after the start of coinfection, the cells are harvested by centrifugation and then stored at −40° C. until the time of use. After thawing and mechanical lysis of the cells, the complex present in the lysis supernatant is purified by affinity chromatography on nickel (IMAC), and stored at −80° C.
CDK2/cyclin E Flashplate Test in 96-Well Format
A format in 96-well plates coated with streptavidin is used to test the activity of the compounds on the kinase activity of CDK2/cyclin E.
To perform this test, the biotinylated peptide substrate, a fragment of the pRb protein (biotinyl-[…]-OH) is dissolved at a concentration of 1 mM in kinase buffer (HEPES/NaOH 50 mM, NaCl 1 mM, MgCl2 5 mM, pH 7.5) in order to constitute a stock solution stored at −20° C. in the form of 110 μl aliquots. On the day of the experiment, an aliquot of this solution is thawed and diluted in kinase buffer containing 1 mM of dithiothreitol, and added to the buffer extemporaneously, in order to obtain a concentration of 14.3 μM. 70 μl of this solution are added to each well of the Flashplate in order to obtain a final substrate concentration of 10 μM during the enzymatic reaction, performed in a final volume of the reaction medium of 100 μl (cf. below).
Intermediate dilutions of inhibitors (products of the invention) at various concentrations are prepared in DMSO from stock solutions at 10 mM in separate tubes. 1000 μM, 333.3 μM, 111.1 μM, 37.03 μM, 12.35 μM, 4.11 μM and 1.37 μM dilutions are thus prepared. 1 μl of each of these solutions (or 1 μl of DMSO for the controls) is transferred into the wells of the test plate.
Into each well are then added 19 μl of a solution of a mixture of adenosine triphosphate (ATP) and of ATPy^33P in the kinase buffer at a concentration of 5.26 μM of ATP total and 52.6 μCi/ml of ^33P. The enzymatic reaction is triggered by addition of 10 μl per well of a solution of CDK2/cyclin E at 200 nM in the kinase buffer containing 1 mM of dithiothreitol (or 10 μl of kinase buffer containing 1 mM of dithiothreitol for the reaction blanks).
After addition of all the reagents, the plate is incubated at 30° C. with orbital stirring at 650 rpm.
When the incubation is complete, the plate is washed three times with 300 μl per well of PBS (phosphate-buffered saline, pH=7.4, without calcium or magnesium, reference 10010-015, Gibco BRL). The incorporation of ^33P into the peptide is quantified by scintillation counting using a Packard Topcount.NXT machine. The inhibitory activity of the products of the invention is evaluated by measuring the inhibitory concentration that allows a 50% reduction in the enzymatic activity (IC50).

The target of assay [2] is CDK4/cyclin D1 (Homo sapiens, UniProt P11802). Put plainly: CDK4/cyclin D1 Flashplate test in 96-well format. The format is biochemical. The method, then:
2. CDK4/cyclin D1 Protocol:
Purification of the CDK4-HA/cyclin D1-(His)6 Complex by IMAC (Immobilized Metal Affinity Chromatography):
Two recombinant baculoviruses bearing the human sequences coding, respectively, for CDK4-HA (C-terminal fusion with the hemaglutinin tag) and for cyclin D1-(His)6 are used to coinfect insect Sf9 cells. Sixty hours after the start of the coinfection, the cells are harvested by centrifugation and then frozen at −20° C. until the time of use.
CDK4/cyclin D1 Flashplate Test in 96-Well Format
A test in 96-well “Flashplate” plates coated with streptavidin is used to evaluate the inhibition of the CDK4/cyclin D1 kinase complex by the products of the invention. To perform this test, the biotinylated peptide substrate, a fragment of the pRb protein (biotinyl-[…]-amide) is dissolved at a concentration of 2 mM in kinase buffer (HEPES/NaOH 50 mM, NaCl 1 mM, MgCl2 5 mM, pH 7.5) in order to constitute a stock solution stored at −20° C. in the form of 110 μl aliquots. On the day of the experiment, an aliquot of this solution is thawed and diluted in kinase buffer containing 1 mM of dithiothreitol, and added to the buffer extemporaneously, in order to obtain a final peptide concentration of 2.571 μM. 70 μl of this solution are added to each well of the Flashplate in order to obtain a final substrate concentration of 1.8 μM during the enzymatic reaction, performed in a final volume of the reaction medium of 100 μl (cf. below). Intermediate dilutions of inhibitors (products of the invention) at various concentrations are prepared in DMSO from stock solutions at 10 mM in separate tubes. 1000 μM, 333.3 μM, 111.1 μM, 37.03 μM, 12.35 μM, 4.11 μM and 1.37 μM dilutions are thus prepared. 1 μl of each of these solutions (or 1 μl of DMSO for the controls) is then transferred into the wells of the test plate. Into each well are then added 19 μl of a solution of a mixture of adenosine triphosphate (ATP) and of ATPy^33P in the kinase buffer at a concentration of 5.26 μM of ATP total and 78.9 μCi/ml of ^33P. The enzymatic reaction is triggered by addition of 10 μl per well of a solution of CDK4/cyclin D1 at 250 nM in the kinase buffer containing 1 mM of dithiothreitol (or 10 μl of kinase buffer containing 1 mM of dithiothreitol for the reaction blanks).
After addition of all the reagents, the test plate is incubated at 30° C. with orbital stirring at 650 rpm. After the incubation, the plate is washed three times with 300 μl per well of PBS (phosphate-buffered saline, pH=7.4, without calcium or magnesium, reference 10010-015, Gibco BRL). The incorporation of ^33P into the substrate peptide is quantified by scintillation counting using a Packard Topcount.NXT machine. The inhibitory activity of the products of the invention is evaluated by measuring the inhibitory concentration that allows a 50% reduction in the enzymatic activity (IC50).

The subject of assay [3] is HeLa. Put plainly: HeLa proliferation. The format is cell-based. The note with it: Homo sapiens, read-out: HeLa proliferation EC50 (nM) DG.

Each structure is given as a SMILES string. Counter-ions that a name gives are not always drawn.

Sequence of CDK4/cyclin D1 (P11802 whole entry): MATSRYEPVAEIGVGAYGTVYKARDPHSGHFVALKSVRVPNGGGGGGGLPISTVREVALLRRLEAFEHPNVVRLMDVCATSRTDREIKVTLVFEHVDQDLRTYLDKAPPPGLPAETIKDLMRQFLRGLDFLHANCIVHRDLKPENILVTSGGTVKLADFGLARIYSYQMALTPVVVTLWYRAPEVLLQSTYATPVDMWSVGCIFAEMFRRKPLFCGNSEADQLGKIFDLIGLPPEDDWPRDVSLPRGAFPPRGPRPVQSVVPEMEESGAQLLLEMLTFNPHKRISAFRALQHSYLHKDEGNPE
Sequence of CDK4/cyclin D1 (P24385 whole entry partner): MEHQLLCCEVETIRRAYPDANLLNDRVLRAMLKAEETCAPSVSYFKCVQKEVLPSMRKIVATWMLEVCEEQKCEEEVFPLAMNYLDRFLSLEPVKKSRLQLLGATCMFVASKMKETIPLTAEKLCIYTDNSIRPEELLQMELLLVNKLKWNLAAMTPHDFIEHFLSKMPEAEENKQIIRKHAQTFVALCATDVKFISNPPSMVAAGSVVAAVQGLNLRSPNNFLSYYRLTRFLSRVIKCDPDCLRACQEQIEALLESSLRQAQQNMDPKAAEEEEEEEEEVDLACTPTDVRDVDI

Consider `CC(C)N(CCNc1ccc(S(=O)(=O)Oc2ccc3nc(NC(=O)CCCCCN)sc3c2)cc1)C(C)C` [Example 49, 4-(2-diisopropylaminoethylamino)benzenesulfonic acid 2-(6-aminohexanoylamino)benzothiazol-6-yl ester hydrochloride], for which the half-inhibitory concentration (IC50) – broadly, the concentration that gives 50% inhibition – came to 183 nM in assay [1] and 328 nM in assay [2]. Also, the EC50 in assay [3] came out at 2700 nM.
On to `O=C(Nc1nc2ccc(OS(=O)(=O)c3ccc(NC4CCCC4)cc3)cc2s1)C1CC1` [Example 8, 4-cyclopentylaminobenzenesulfonic 2-(cyclo-propanecarbonylamino)benzothiazol-6-yl ester], for which the IC50 in assay [1] came to 86 nM; in assay [2], 899 nM. The EC50 in assay [3] is 631 nM.
The corresponding values for `O=C(Nc1nc2ccc(OS(=O)(=O)c3ccc(NCCCCn4cnc(-c5cccnc5)c4)cc3)cc2s1)C1CC1` [Example 13, 4-[4-(4-pyrid-3-ylimidazol-1-yl)butylamino]-benzenesulfonic 2-(cyclopropanecarbonylamino)benzothiazol-6-yl ester] are 678 nM, 6860 nM and 841 nM.
Take `CC(C)N(CCNc1ccc(S(=O)(=O)Oc2ccc3nc(NC(=O)CCc4cccnc4)sc3c2)cc1)C(C)C` [Example 62, 4-(2-diisopropylaminoethylamino)benzenesulfonic acid 2-(3-pyrid-3-ylpropionylamino)benzothiazol-6-yl ester hydrochloride]: the IC50 in assay [1] is 75 nM; in assay [2] it was 236 nM. In addition, the EC50 in assay [3] was found to be 296 nM.
`O=C(CCC1CCNCC1)Nc1nc2ccc(OS(=O)(=O)c3ccc(NCCNCCO)cc3)cc2s1` [Example 25c, 4-[2-(2-Hydroxyethyl-amino)-ethylamino] benzenesulfonic acid 2-(3-piperid-4-ylpropionyl-amino)benzothiazol-6-yl ester hydrochloride]: the results for the IC50 in assay [1] and in assay [2] were 2640 nM and 3890 nM, respectively. Also, in assay [3], the EC50 is above 12500 nM.
With `O=C(CCC1CCNCC1)Nc1nc2ccc(OS(=O)(=O)c3ccc(NCCCn4ccnc4)cc3)cc2s1` [Example 25a, 4-(3-Imidazol-1-ylpropyl-amino)benzenesulfonic acid 2-(3-piperid-4-ylpropionyl-amino)benzothiazol-6-yl ester hydrochloride], the IC50 in assay [1] is 365 nM; in assay [2], 1700 nM. Moreover, the EC50 in assay [3] was above 12500 nM.
As to `CCNCCNc1ccc(S(=O)(=O)Oc2ccc3nc(NC(=O)CCC4CCNCC4)sc3c2)cc1` [Example 25b, 4-(2-Ethylaminoethyl-amino)-benzenesulfonic acid 2-(3-piperid-4-yl-propionyl-amino)-benzo-thiazol-6-yl ester hydrochloride], the results for the IC50 in assay [1] and in assay [2] were 5870 nM and 4080 nM, respectively. For the same compound, in assay [3], the EC50 is 9960 nM.
For `CC(C)NCCNc1ccc(S(=O)(=O)Oc2ccc3nc(NC(=O)C(C)C)sc3c2)cc1` [Example 75, 4-(2-isopropylaminoethylamino)benzenesulfonic acid 2-isobutyrylaminobenzothiazol-6-yl ester; compound with trifluoroacetic acid], the IC50 in assay [1] was determined as 445 nM; in assay [2] it was 874 nM. In addition, the EC50 in assay [3] was 195 nM.
As to `CC(C)CNc1ccc(S(=O)(=O)Oc2ccc3nc(NC(=O)CC4CCNCC4)sc3c2)cc1` [Example 28, 4-isobutylaminobenzenesulfonic acid 2-(2-piperid-4-ylacetylamino)benzothiazol-6-yl ester hydrochloride], the IC50 amounted to 266 nM in assay [1] and 399 nM in assay [2]. In assay [3], the EC50 stood at 1330 nM.
Turning to `COCC(=O)Nc1nc2ccc(OS(=O)(=O)c3ccc(NCCNC(C)C)cc3)cc2s1` [Example 67, 4-(2-isopropylaminoethylamino)benzenesulfonic acid 2-(2-methoxyacetylamino)benzothiazol-6-yl ester], the figures for the IC50 in assay [1] and in assay [2] were 294 nM and 1220 nM, respectively. Also, in assay [3], the EC50 was above 12500 nM.
As to `CCC(=O)Nc1nc2ccc(OS(=O)(=O)c3ccc(NCCNC(C)C)cc3)cc2s1` [Example 71, 4-(2-isopropylaminoethylamino)benzenesulfonic acid 2-propionylaminobenzothiazol-6-yl ester; compound with trifluoroacetic], the values for the IC50 in assay [1] and in assay [2] were 175 nM and 424 nM, respectively. The EC50 in assay [3] is 2170 nM.
As to `CC(C)(O)CNc1ccc(S(=O)(=O)Oc2ccc3nc(NC(=O)CCCCCCCN)sc3c2)cc1` [Example 22d, 4-(2-Hydroxy-2-methyl-propylamino)benzene-sulfonic acid 2-(8-amino-octanoylamino)benzo-thiazol-6-yl ester hydro-chloride], the IC50 in assay [1] amounted to 69 nM; in assay [2], 708 nM. Besides, in assay [3], the EC50 turned out to be 5360 nM.
In the case of `CC(C)CNc1ccc(S(=O)(=O)Oc2ccc3nc(NC(=O)CCCCCCCN)sc3c2)cc1` [Example 29b, 4-Isobutylaminobenzenesulfonic acid 2-(8-aminooctanoylamino)-benzothiazol-6-yl ester hydro-chloride], the IC50 in assay [1] was found to be 161 nM; in assay [2], 368 nM. In addition, the EC50 in assay [3] is 8960 nM.
In the case of `CC(C)CNc1ccc(S(=O)(=O)Oc2ccc3nc(NC(=O)CCC4CCNCC4)sc3c2)cc1` [Example 29a, 4-Isobutylaminobenzenesulfonic acid 2-(3-piperid-4-ylpropionyl-amino)benzothiazol-6-yl ester hydrochloride], the IC50 in assay [1] came to 257 nM; in assay [2], 573 nM. The EC50 in assay [3] was 1830 nM.
Take `CC(C)NCCNc1ccc(S(=O)(=O)Oc2ccc3nc(NC(=O)C4CCC4)sc3c2)cc1` [Example 77, 4-(2-isopropylaminoethylamino)benzenesulfonic acid (2-cyclobutanecarbonylamino)benzothiazol-6-yl ester; compound with trifluoroacetic acid]: the IC50 was 419 nM in assay [1] and 1010 nM in assay [2]. Moreover, the EC50 in assay [3] is 179 nM.
